Test system: MDA-MB-468 complex spheroids with HUVEC/MSC, viability
Experiment: Anticancer human tumor MDA-MB-468 cell line growth inhibition;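 also: spheroids exposed to agents for seven days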;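 as to viability, T/C: 100% = DMSO vehicle control viability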
Conditions: for IC50: curve of first compound; for viability, T/C: stronger effect = lower value
Source text: Multicellular complex tumor spheroid response to LSD1 Inhibitor Iadademstat in combination with a variety of drugs and investigational agents in selected tumor cell lines
The current study was undertaken to assess response to LSD1 inhibitors in combination with standard-of-care drugs and investigational agents in solid tumor complex spheroid models as well as in the K-562 leukemia. Complex spheroids include a stromal component modeled by human endothelial cells (HUVEC) and fibroblasts modeled by human mesenchymal stem cells (MSCs). The concentration ranges selected for each drug and investigational agent were based upon clinically achievable concentrations if the clinical Cmax of the agent was known.
Compounds. The drugs and investigational agents used in this study are listed on Table 1. All of the agents used, including staurosporine (NSC755774) and gemcitabine (NSC613327), were obtained from the Developmental Therapeutics Program, NCI. FDA-approved anticancer drugs are available from the NCI at http://dtp.nci.nih.gov/branches/dscb/oncology_drugset_explanation.html. Drugs and investigational agents were >95% pure by proton nuclear magnetic resonance (NMR) and liquid chromatography/mass spectrometry (LC/MS). Stock solutions were prepared at 400x in DMSO, stored at -70 degrees C, and diluted in fresh medium prior to their use. The final concentration of DMSO in cell culture wells never exceeded 0.25% (v/v). The FDA-approved anticancer drug set is available from the Developmental Therapeutics Program at https://dtp.cancer.gov/organization/dscb/obtaining/available_plates.htm. All drugs and investigational agents were tested over a range starting from a high concentration at or near the clinical Cmax and decreasing in half-log increments. If the clinical Cmax for an agent had not been determined, the highest concentration tested was 10 microM.
Cell Lines. The patient-derived cancer cell (PDC) lines: 292921-168-R-J2-PDC, K24384-001-R-PDC, and 521955-158-R2-J5-PDC pancreatic carcinomas, 556581-035-R-J1 ovarian carcinoma, 324938-238-R-J1-PDC, 855422-203-R-J1-PDC and 883617-216-R-J1-PDC urothelial bladder carcinomas, 743489-274-T-PDC renal cell carcinoma, 138582-R-J1 Merkel cell tumor, K60290-347-R-J1 and K57222-313-R-J1-PDC glioblastomas, 653999-131-R-J2-PDC, LG0703-F948-PDC, and 349418-098-R-PDC non-small cell lung carcinomas, 885512-296-R-J2-PDC, 171881-019-R-J1-PDC breast carcinomas and 186277-243-T-J2-PDC and 233499-124-R-J2-PDC colon carcinomas were obtained from the NCI Patient-Derived Models Repository (PDMR, https://pdmr.cancer.gov). The established cell lines NCI/ADR-RES (RRID:CVCL_14520 and OVCAR-5 (RRID:CVCL_1628) ovarian carcinomas, 786-O (RRID:CVCL_1051) and A498 (RRID:CVCL_A498) renal cell carcinoma, NCI-H211 (ATCC, cat. CRL-5824; RRID:CVCL_1529), NCI-H196 (ATCC, cat. CRL-5823, RRID:CVCL_1509), SW 1271 (ATCC, cat. CRL-2177, RRID:CVCL_1716) and NCI-H1876 (ATCC, cat. CRL-5902, RRID:CVCL_1503) small cell lung carcinomas, MDA-MB-231 (RRID:CVCL_0062) and MDA-MB-468 (RRID:CVCL_0419)breast carcinomas (10-12). Pooled donor human umbilical vein endothelial cells (HUVEC, Lonza, cat. CC-2519) and human mesenchymal stem cells (hMSC, Lonza, cat. PT-2501) were purchased from Lonza (Walkersville, MD).
Cell Culture. All cells were maintained in an incubator at 37 degrees C and 5% CO2 with 95% humidity. The PDC lines were cultured according to standard operating procedures established by the NCI PDMR (https://pdmr.cancer.gov). Briefly all PDCs were thawed and cultured in Matrigel-coated flasks prepared with a working solution of 1X Ham's F-12 nutrient mix, without supplementation (Invitrogen, Waltham, MA, cat. 11765054), 100 U/mL penicillin-streptomycin (Invitrogen, cat. 15140122), and 2.5% Matrigel (Corning Inc., Corning, NY, cat. 354248) for the first three passages. […]

[1] = second compound 0.1 µM, first compound 0.000949 µM
[2] = second compound 0.1 µM, first compound 0.003 µM
[3] = second compound 0.1 µM, first compound 0.00949 µM
[4] = second compound 0.1 µM, first compound 0.03 µM
[5] = second compound 0.1 µM, first compound 0.0949 µM
[6] = second compound 0.1 µM, first compound 0.3 µM
[7] = second compound 0.316 µM, first compound 0.000949 µM
[8] = second compound 0.316 µM, first compound 0.003 µM
[9] = second compound 0.316 µM, first compound 0.00949 µM
[10] = second compound 0.316 µM, first compound 0.03 µM
[11] = second compound 0.316 µM, first compound 0.0949 µM
[12] = second compound 0.316 µM, first compound 0.3 µM
[13] = second compound 1 µM, first compound 0.000949 µM
[14] = second compound 1 µM, first compound 0.003 µM
[15] = second compound 1 µM, first compound 0.00949 µM
[16] = second compound 1 µM, first compound 0.03 µM
[17] = second compound 1 µM, first compound 0.0949 µM
[18] = second compound 1 µM, first compound 0.3 µM
[19] = second compound 3.16 µM, first compound 0.000949 µM
[20] = second compound 3.16 µM, first compound 0.003 µM
[21] = second compound 3.16 µM, first compound 0.00949 µM
[22] = second compound 3.16 µM, first compound 0.03 µM
[23] = second compound 3.16 µM, first compound 0.0949 µM
[24] = second compound 3.16 µM, first compound 0.3 µM
[25] = second compound 10 µM, first compound 0.000949 µM
[26] = second compound 10 µM, first compound 0.003 µM
[27] = second compound 10 µM, first compound 0.00949 µM
[28] = second compound 10 µM, first compound 0.03 µM
[29] = second compound 10 µM, first compound 0.0949 µM
[30] = second compound 10 µM, first compound 0.3 µM

Compound: CCc1c2c(nc3ccc(O)cc13)-c1cc3c(c(=O)n1C2)COC(=O)[C@]3(O)CC + NC1CC1c1ccc(-c2cccc(O)c2)cc1
- IC50 (second compound 0.1 µM): < 0.949 nM
- IC50 (second compound 0.316 µM): < 0.949 nM
- IC50 (second compound 1 µM): < 0.949 nM
- IC50 (second compound 3.16 µM): < 0.949 nM
- IC50 (second compound 10 µM): < 0.949 nM
- viability, T/C [1]: 4.36%
- viability, T/C [2]: 3.78%
- viability, T/C [3]: 2.14%
- viability, T/C [4]: 0.44%
- viability, T/C [5]: 0.43%
- viability, T/C [6]: 0.53%
- viability, T/C [7]: 4.17%
- viability, T/C [8]: 3.69%
- viability, T/C [9]: 1.95%
- viability, T/C [10]: 0.43%
- viability, T/C [11]: 0.4%
- viability, T/C [12]: 0.49%
- viability, T/C [13]: 3.6%
- viability, T/C [14]: 3.54%
- viability, T/C [15]: 2.31%
- viability, T/C [16]: 0.52%
- viability, T/C [17]: 0.36%
- viability, T/C [18]: 0.52%
- viability, T/C [19]: 4.14%
- viability, T/C [20]: 3.66%
- viability, T/C [21]: 2.43%
- viability, T/C [22]: 0.36%
- viability, T/C [23]: 0.43%
- viability, T/C [24]: 0.47%
- viability, T/C [25]: 4.14%
- viability, T/C [26]: 3.24%
- viability, T/C [27]: 2.07%
- viability, T/C [28]: 0.38%
- viability, T/C [29]: 0.56%
- viability, T/C [30]: 0.6%

Compound: Nc1ccn(C2OC(CO)C(O)C2(F)F)c(=O)n1 (stereo not given) + NC1CC1c1ccc(-c2cccc(O)c2)cc1
- IC50 (second compound 0.1 µM): < 0.949 nM
- IC50 (second compound 0.316 µM): < 0.949 nM
- IC50 (second compound 1 µM): < 0.949 nM
- IC50 (second compound 3.16 µM): < 0.949 nM
- IC50 (second compound 10 µM): < 0.949 nM
- viability, T/C [1]: 33.8%
- viability, T/C [2]: 14.3%
- viability, T/C [3]: 4.63%
- viability, T/C [4]: 3.79%
- viability, T/C [5]: 3.9%
- viability, T/C [6]: 3.38%
- viability, T/C [7]: 34.3%
- viability, T/C [8]: 14.2%
- viability, T/C [9]: 4.2%
- viability, T/C [10]: 3.68%
- viability, T/C [11]: 3.51%
- viability, T/C [12]: 3.68%
- viability, T/C [13]: 32.4%
- viability, T/C [14]: 12.8%
- viability, T/C [15]: 4.05%
- viability, T/C [16]: 3.61%
- viability, T/C [17]: 3.27%
- viability, T/C [18]: 3.33%
- viability, T/C [19]: 28.3%
- viability, T/C [20]: 11.9%
- viability, T/C [21]: 4.05%
- viability, T/C [22]: 3.61%
- viability, T/C [23]: 3.53%
- viability, T/C [24]: 3.69%
- viability, T/C [25]: 24.4%
- viability, T/C [26]: 12.5%
- viability, T/C [27]: 4.33%
- viability, T/C [28]: 3.84%
- viability, T/C [29]: 3.5%
- viability, T/C [30]: 3.65%

Compound: O=C(c1cc(Cc2n[nH]c(=O)c3ccccc23)ccc1F)N1CCN(C(=O)C2CC2)CC1 + NC1CC1c1ccc(-c2cccc(O)c2)cc1
- IC50 (second compound 0.1 µM): 909 nM
- IC50 (second compound 0.316 µM): 840 nM
- IC50 (second compound 1 µM): 645 nM
- IC50 (second compound 3.16 µM): 677 nM
- IC50 (second compound 10 µM): 144 nM
- viability, T/C (second compound 0.1 µM, first compound 0.0316 µM): 93.6%
- viability, T/C (second compound 0.1 µM, first compound 0.1 µM): 88.1%
- viability, T/C (second compound 0.1 µM, first compound 0.316 µM): 70.5%
- viability, T/C (second compound 0.1 µM, first compound 1 µM): 52.7%
- viability, T/C (second compound 0.1 µM, first compound 3.16 µM): 18.6%
- viability, T/C (second compound 0.1 µM, first compound 10 µM): 14.2%
- viability, T/C (second compound 0.316 µM, first compound 0.0316 µM): 88.6%
- viability, T/C (second compound 0.316 µM, first compound 0.1 µM): 88.2%
- viability, T/C (second compound 0.316 µM, first compound 0.316 µM): 76%
- viability, T/C (second compound 0.316 µM, first compound 1 µM): 46.2%
- viability, T/C (second compound 0.316 µM, first compound 3.16 µM): 16.2%
- viability, T/C (second compound 0.316 µM, first compound 10 µM): 11.9%
- viability, T/C (second compound 1 µM, first compound 0.0316 µM): 98.2%
- viability, T/C (second compound 1 µM, first compound 0.1 µM): 82.3%
- viability, T/C (second compound 1 µM, first compound 0.316 µM): 66.7%
- viability, T/C (second compound 1 µM, first compound 1 µM): 43.4%
- viability, T/C (second compound 1 µM, first compound 3.16 µM): 13.9%
- viability, T/C (second compound 1 µM, first compound 10 µM): 8.61%
- viability, T/C (second compound 3.16 µM, first compound 0.0316 µM): 82%
- viability, T/C (second compound 3.16 µM, first compound 0.1 µM): 75.4%
- viability, T/C (second compound 3.16 µM, first compound 0.316 µM): 72.5%
- viability, T/C (second compound 3.16 µM, first compound 1 µM): 38.7%
- viability, T/C (second compound 3.16 µM, first compound 3.16 µM): 12.5%
- viability, T/C (second compound 3.16 µM, first compound 10 µM): 7.33%
- viability, T/C (second compound 10 µM, first compound 0.0316 µM): 63%
- viability, T/C (second compound 10 µM, first compound 0.1 µM): 51.4%
- viability, T/C (second compound 10 µM, first compound 0.316 µM): 43.6%
- viability, T/C (second compound 10 µM, first compound 1 µM): 26.6%
- viability, T/C (second compound 10 µM, first compound 3.16 µM): 13.8%
- viability, T/C (second compound 10 µM, first compound 10 µM): 8.66%
